Source: BindingDB's records for patent US20250197375 (Kineta, 2025)

Molecular target: T1, 1-phosphatidylinositol 3-phosphate 5-kinase [S696N,L932S,Q995L,T998S,S1033A,Q1183K] (Homo sapiens, UniProt Q9Y2I7, L932S/Q1183K/Q995L/S1033A/S696N/T998S)
T1 construct: gene PIKFYVE
Experiment: PIKfyve Inhibitory Activity Assay
Protocol: PIKfyve Biochemical Assay. The biochemical PIKFyve inhibition assays were run by Cama Biosciences according to proprietary methodology based on the Promega ADP-Glo™ Kinase assay. […] GST-PIKFYVE was purified by using glutathione sepharose chromatography and used in an ADP-Glo™ Kinase assay (Promega). Reactions were set up by adding the test compound solution, substrate solution, ATP solution and kinase solution, each at 4× final concentrations. Reactions were prepared with assay buffer (50 mM MOPS, 1 mM DTT, pH7.2), mixed, and incubated in black 384 well polystyrene plates for 1 hour at room temperature. ADP-Glo™ reagent was then added for 40 minutes, followed by kinase detection reagent for an additional 40 minutes. The kinase activity was evaluated by detecting relative light units on a luminescence plate reader. Samples were run in duplicate from 10 μM to 3 nM. […] IC50 values were calculated from concentration versus percent inhibition curves by fitting to a four-parameter logistic curve.

T1 sequence (Q9Y2I7 2-2098 S696N/L932S/Q995L/T998S/S1033A/Q1183K limits assumed): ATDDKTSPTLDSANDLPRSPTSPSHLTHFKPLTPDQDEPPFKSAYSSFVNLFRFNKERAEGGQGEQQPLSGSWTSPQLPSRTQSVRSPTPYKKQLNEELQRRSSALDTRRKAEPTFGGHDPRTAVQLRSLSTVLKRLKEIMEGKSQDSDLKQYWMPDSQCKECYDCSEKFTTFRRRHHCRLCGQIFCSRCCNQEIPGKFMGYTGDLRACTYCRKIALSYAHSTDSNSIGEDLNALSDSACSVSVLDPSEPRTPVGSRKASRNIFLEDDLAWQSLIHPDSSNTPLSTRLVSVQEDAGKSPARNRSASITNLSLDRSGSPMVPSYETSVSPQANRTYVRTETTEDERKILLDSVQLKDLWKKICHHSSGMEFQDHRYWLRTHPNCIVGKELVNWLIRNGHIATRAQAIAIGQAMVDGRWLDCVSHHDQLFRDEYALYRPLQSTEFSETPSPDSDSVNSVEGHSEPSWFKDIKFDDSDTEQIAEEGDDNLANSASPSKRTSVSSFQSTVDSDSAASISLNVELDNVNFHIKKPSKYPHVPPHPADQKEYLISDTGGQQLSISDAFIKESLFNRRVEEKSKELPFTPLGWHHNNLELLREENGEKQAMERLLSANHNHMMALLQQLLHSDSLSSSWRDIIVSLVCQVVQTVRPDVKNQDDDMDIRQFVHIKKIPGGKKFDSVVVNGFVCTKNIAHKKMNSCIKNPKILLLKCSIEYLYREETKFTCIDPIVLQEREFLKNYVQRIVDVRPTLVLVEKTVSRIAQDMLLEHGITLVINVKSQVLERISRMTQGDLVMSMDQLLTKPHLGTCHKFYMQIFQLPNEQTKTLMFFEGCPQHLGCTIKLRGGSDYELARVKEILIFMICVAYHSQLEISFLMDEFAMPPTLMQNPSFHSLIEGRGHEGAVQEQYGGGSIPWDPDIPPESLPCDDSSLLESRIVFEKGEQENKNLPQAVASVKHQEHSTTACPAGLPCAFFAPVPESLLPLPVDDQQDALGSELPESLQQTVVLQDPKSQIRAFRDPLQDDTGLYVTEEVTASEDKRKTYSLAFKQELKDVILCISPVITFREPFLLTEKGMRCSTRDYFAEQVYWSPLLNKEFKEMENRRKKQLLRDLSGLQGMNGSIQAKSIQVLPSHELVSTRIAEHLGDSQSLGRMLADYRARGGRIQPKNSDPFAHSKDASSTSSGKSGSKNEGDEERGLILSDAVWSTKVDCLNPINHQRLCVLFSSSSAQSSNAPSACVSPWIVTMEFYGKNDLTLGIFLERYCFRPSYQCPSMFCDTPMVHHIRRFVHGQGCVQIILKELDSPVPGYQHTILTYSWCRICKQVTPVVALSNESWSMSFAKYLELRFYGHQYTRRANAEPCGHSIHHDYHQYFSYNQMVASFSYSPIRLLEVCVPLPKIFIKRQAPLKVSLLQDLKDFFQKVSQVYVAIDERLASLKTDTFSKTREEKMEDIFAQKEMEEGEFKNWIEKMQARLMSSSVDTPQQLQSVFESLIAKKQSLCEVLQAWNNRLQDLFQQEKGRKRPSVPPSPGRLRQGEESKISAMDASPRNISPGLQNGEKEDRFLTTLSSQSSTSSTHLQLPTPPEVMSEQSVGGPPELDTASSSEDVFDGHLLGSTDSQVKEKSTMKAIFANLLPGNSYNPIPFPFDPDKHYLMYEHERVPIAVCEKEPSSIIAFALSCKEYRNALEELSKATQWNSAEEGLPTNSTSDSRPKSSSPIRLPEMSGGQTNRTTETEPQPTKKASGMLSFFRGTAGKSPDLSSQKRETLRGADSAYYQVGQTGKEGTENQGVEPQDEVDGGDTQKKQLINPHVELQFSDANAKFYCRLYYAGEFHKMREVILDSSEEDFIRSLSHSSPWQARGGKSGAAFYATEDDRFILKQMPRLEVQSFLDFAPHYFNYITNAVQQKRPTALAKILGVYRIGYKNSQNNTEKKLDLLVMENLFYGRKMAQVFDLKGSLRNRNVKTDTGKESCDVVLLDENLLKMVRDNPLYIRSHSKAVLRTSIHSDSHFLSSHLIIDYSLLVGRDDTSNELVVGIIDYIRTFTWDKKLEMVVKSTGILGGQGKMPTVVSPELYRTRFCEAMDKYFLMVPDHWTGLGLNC

**Q.** Which IC50 does the source give for `CN(C)C(=O)c1c(Nc2ccncc2)nc(N2CCOCC2)nc1-c1cccc(-c2ccn(C)n2)c1` [US20250197375, Compound 66] here?
**A.** < 10 nM
